Structures can show the parent of a compound that is named as a salt.
What was measured:
human FXa = human FXa (Homo sapiens, UniProt P00742); assay: Inhibitory action of human activated blood coagulation factor X (FXa); assay type: biochemical; settings: chromogenic substrate S-2765, 37° C., absorbance at 405 nm, read-out: IC50 (concentration inhibiting FXa activity by 50%)
Chain of human FXa (P00742 235-488 limits assumed): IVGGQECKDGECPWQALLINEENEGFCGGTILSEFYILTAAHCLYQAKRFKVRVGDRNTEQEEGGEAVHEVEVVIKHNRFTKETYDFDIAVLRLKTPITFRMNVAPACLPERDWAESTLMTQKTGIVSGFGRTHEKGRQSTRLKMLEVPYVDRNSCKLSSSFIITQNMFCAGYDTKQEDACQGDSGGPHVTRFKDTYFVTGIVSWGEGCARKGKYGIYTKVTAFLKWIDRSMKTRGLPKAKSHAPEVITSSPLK
Chain of human FXa (P00742 41-179 partner limits assumed): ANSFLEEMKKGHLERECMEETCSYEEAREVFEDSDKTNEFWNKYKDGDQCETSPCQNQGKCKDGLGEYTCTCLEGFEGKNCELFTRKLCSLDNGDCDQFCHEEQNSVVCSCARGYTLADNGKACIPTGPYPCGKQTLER

SMILES	IC50 (human FXa)	melting point
N=C1CCCCN1C1CCN(C(=O)[C@H](O)CS(=O)(=O)c2ccc3cc(Cl)ccc3c2)CC1 [Example 43, (2S)-3-[(6-Chloronaphthalen-2-yl)sulfonyl]-1-(2-imino-1,4′-bipiperidin-1′-yl)-1-oxopropan-2-ol trifluoroacetate]	4.8 nM	–
O=C([C@H](O)CS(=O)(=O)c1ccc2cc(Cl)ccc2c1)N1CCN(N2CCCNC2=O)CC1 [Example 25, 1-(4-{(2S)-3-[(6-Chloronaphthalen-2-yl)sulfonyl]-2-hydroxypropanoyl}piperazin-1-yl)tetrahydropyrimidin-2(1H)-one]	4.2 nM	–
O=C([C@H](O)CS(=O)(=O)c1ccc2cc(Cl)ccc2c1)N1CCN(N2CCCCC2=O)CC1 [Example 8, 1-(4-{(2S)-3-[(6-Chloronaphthalen-2-yl)sulfonyl]-2-hydroxypropanoyl}piperazin-1-yl)piperidin-2-one]	6.6 nM	198 °C
O=C(CCS(=O)(=O)c1ccc2cc(Cl)ccc2c1)N1CCN(N2CCCNC2=O)CC1 [Example 33, 1-(1-{3-[(6-Chloronaphthalen-2-yl)sulfonyl]propanoyl}piperazin-4-yl)tetrahydropyrimidin-2(1H)-one]	9.9 nM	–

Source: US8697865B2, “Cyclic amide derivative, and its production and use” (Takeda Pharmaceutical Company Limited, priority 2004, dated 2014)
